Measured values reported in patent publication US8802597B2, “Herbicidal pyrimidines” (E I du Pont de Nemours and Company, priority 2003, dated 2014).
Read-outs that look alike come from different tables or passages of the source.

Legend:
Format in all cases: in vivo
[1] = test system: yellow nutsedge (Cyperus esculentus); assay: Test C pre/postemergence; details: Cyperus; for pest or weed control at 62 g/ha: 62 g ai/ha; for pest or weed control at 125 g/ha: 125 g ai/ha; for pest or weed control at 250 g/ha: 250 g ai/ha; for pest or weed control at 31 g/ha: 31 g ai/ha
How it was run: (§1)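 Test compounds, formulated in a non-phytotoxic solvent mix with surfactant, were applied to freshly planted seeds and, at the same time, to emerged plants at 1- to 4-leaf stage (2 to 18 cm). After 12 to 14 days in the greenhouse, response was scored visually versus controls, 0 = no effect, 100 = complete control.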

[2] = test system: soybean (Glycine max); assay: Test C pre/postemergence; details: Glycine max; for plant injury at 62 g/ha: 62 g ai/ha; for plant injury at 125 g/ha: 125 g ai/ha; for plant injury at 250 g/ha: 250 g ai/ha; for plant injury at 31 g/ha: 31 g ai/ha
How it was run: as §1

[3] = test system: umbrella sedge (Cyperus difformis); assay: Test C flooded paddy test; details: Flood, scale 0 to 100
Experimental: (§2) At the same time, plants selected from these crop and weed species and also winter barley (Hordeum vulgare), blackgrass (Alopecurus myosuroides), canarygrass (Phalaris minor), chickweed (Stellaria media), downy brome (Bromus tectorum), green foxtail (Setaria viridis), Italian ryegrass (Lolium multiflorum), wheat (Triticum aestivum), wild oat (Avena fatua) and windgrass (Apera spica-venti) were treated with postemergence applications of some of the test chemicals formulated in the same manner. Plants ranged in height from 2 to 18 cm (1- to 4-leaf stage) for postemergence treatments. Plant species in the flooded paddy test consisted of rice (Oryza sativa), umbrella sedge (Cyperus difformis), duck salad (Heteranthera limosa) and barnyardgrass (Echinochloa crus-galli) grown to the 2-leaf stage for testing. Treated plants and controls were maintained in a greenhouse for 12 to 14 days, after which time all species were compared to controls and visually evaluated. Plant response ratings, summarized in Table C, are based on a scale of 0 to 100 where 0 is no effect and 100 is complete control. A dash (-) response means no test result.

[4] = test system: barnyardgrass (Echinochloa crus-galli); assay: Test C flooded paddy test; details: Flood
Experimental: as §2

[5] = test system: duck salad (Heteranthera limosa); assay: Test C flooded paddy test; details: Flood, scale 0 to 100
Experimental: as §2

[6] = test system: rice (Oryza sativa); assay: Test C flooded paddy test; details: Flood, scale 0 to 100
Experimental: as §2

[7] = test system: crabgrass (Digitaria sanguinalis); assay: Test C pre/postemergence; details: Digitaria sanguinalis; for pest or weed control at 31 g/ha: 31 g ai/ha; for pest or weed control at 62 g/ha: 62 g ai/ha; for pest or weed control at 125 g/ha: 125 g ai/ha; for pest or weed control at 250 g/ha: 250 g ai/ha
How it was run: as §1

[8] = pre-emergence, Preemergence, scale 0 to 100, 0 no effect, 100 complete control, read-out: Plant response rating, Nutsedge, Yellow
[9] = pre-emergence, Preemergence, scale 0 to 100, read-out: Plant response rating, Nutsedge, Yellow
[10] = pre-emergence, Preemergence, scale 0 to 100, 0 no effect, 100 complete control, read-out: Plant response rating, Soybean
[11] = pre-emergence, Preemergence, scale 0 to 100, read-out: Plant response rating, Soybean
[12] = 500 g ai/ha, scale 0 to 100 (0 no effect, 100 complete control)
[13] = post-emergence, Postemergence, scale 0 to 100 (0 no effect, 100 complete control), read-out: Nutsedge, Yellow plant response rating
[14] = post-emergence, Postemergence, scale 0 to 100 (0 no effect, 100 complete control), read-out: Soybean plant response rating
[15] = post-emergence, Postemergence, scale 0 to 100 (0 no effect, 100 complete control), read-out: Crabgrass plant response rating
[16] = pre-emergence, Preemergence, scale 0 to 100, 0 no effect, 100 complete control, read-out: Plant response rating, Crabgrass
[17] = pre-emergence, Preemergence, scale 0 to 100, read-out: Plant response rating, Crabgrass

| Structure (SMILES) | pest or weed control at 62 g/ha [1, 8] | pest or weed control at 125 g/ha [1, 9] | pest or weed control at 250 g/ha [1, 9] | plant injury at 62 g/ha [2, 10] | plant injury at 125 g/ha [2, 11] | plant injury at 250 g/ha [2, 11] | Plant response rating, Sedge, Umbrella ([3]; 62 g ai/ha) | Plant response rating, Sedge, Umbrella ([3]; 125 g ai/ha) | Plant response rating, Sedge, Umbrella ([3]; 250 g ai/ha) | Plant response rating, Sedge, Umbrella ([3]; 500 g ai/ha) | Plant response rating, Barnyardgrass ([4]; 62 g ai/ha, scale 0 to 100) | Plant response rating, Barnyardgrass ([4]; 125 g ai/ha, scale 0 to 100) | Plant response rating, Barnyardgrass ([4]; 250 g ai/ha, scale 0 to 100) | Plant response rating, Barnyardgrass [4, 12] | Plant response rating, Ducksalad ([5]; 62 g ai/ha) | Plant response rating, Ducksalad ([5]; 125 g ai/ha) | Plant response rating, Ducksalad ([5]; 250 g ai/ha) | Plant response rating, Ducksalad ([5]; 500 g ai/ha) | Plant response rating, Rice ([6]; 62 g ai/ha) | Plant response rating, Rice ([6]; 125 g ai/ha) | further results |
| --- | --- | --- | --- | --- | --- | --- | --- | --- | --- | --- | --- | --- | --- | --- | --- | --- | --- | --- | --- | --- | --- |
| Nc1nc(C2CC2)nc(C=O)c1Br [Compound 26] | 0% | 0% | 0% | 0% | 10% | 10% | 0 | 0 | 20 | 20 | 0 | 0 | 0 | 0 | 40 | 40 | 40 | 40 | 0 | 0 | pest or weed control at 500 g/ha ([1]; pre-emergence, Preemergence, 500 g ai/ha, scale 0 to 100, read-out: Plant response rating, Nutsedge, Yellow): 0%; plant injury at 500 g/ha ([2]; pre-emergence, Preemergence, 500 g ai/ha, scale 0 to 100, read-out: Plant response rating, Soybean): 20%; Plant response rating, Rice ([6]; 250 g ai/ha): 20; Plant response rating, Rice ([6]; 500 g ai/ha): 25 |
| COC(=O)c1nc(C2CC2)nc(N)c1Cl [Compound 9, methyl 6-amino-5-chloro-2-cyclopropyl-4-pyrimidinecarboxylate] | 100% | 100% | 100% | 100% | 100% | 100% | 0 | 15 | 15 | 85 | 0 | 15 | 55 | 85 | 45 | 70 | 80 | 90 | 0 | 30 | pest or weed control at 31 g/ha ([1]; post-emergence, Postemergence, read-out: Plant response rating (scale of 0 to 100), Nutsedge, Yellow): 0%; pest or weed control at 62 g/ha [1, 13]: 0%; pest or weed control at 125 g/ha [1, 13]: 0%; pest or weed control at 250 g/ha ([1]; post-emergence, Postemergence, scale 0 to 100, read-out: Plant response rating, Nutsedge, Yellow): 0%; pest or weed control at 31 g/ha [1, 8]: 20%; plant injury at 31 g/ha ([2]; post-emergence, Postemergence, read-out: Plant response rating (scale of 0 to 100), Soybean): 95%; plant injury at 62 g/ha [2, 14]: 100%; plant injury at 125 g/ha [2, 14]: 100%; plant injury at 250 g/ha ([2]; post-emergence, Postemergence, scale 0 to 100, read-out: Plant response rating, Soybean): 100%; plant injury at 31 g/ha [2, 10]: 100%; pest or weed control at 31 g/ha ([7]; post-emergence, Postemergence, read-out: Plant response rating (scale of 0 to 100), Crabgrass): 60%; pest or weed control at 62 g/ha [7, 15]: 70%; pest or weed control at 125 g/ha [7, 15]: 75%; pest or weed control at 250 g/ha ([7]; post-emergence, Postemergence, scale 0 to 100, read-out: Plant response rating, Crabgrass): 80%; pest or weed control at 31 g/ha [7, 16]: 20%; pest or weed control at 62 g/ha [7, 16]: 95%; pest or weed control at 125 g/ha [7, 17]: 95%; pest or weed control at 250 g/ha [7, 17]: 100%; Plant response rating, Rice ([6]; 250 g ai/ha): 55; Plant response rating, Rice ([6]; 500 g ai/ha): 75 |
